What was measured:
[1] = target: T1, GST-RIPK2 fusion protein (human RIPK2 amino acids 1-310) (Homo sapiens, UniProt O43353); test: RIPK2 binding competition assay (TR-FRET, Tracer 199); details: displacement of Tracer 199 (10 nM), 45 min at 22° C.
T1 construct: made in house; host or cells: baculovirus-infected Sf9 cells
Source text: The ability of selected compounds of Formulas (I) and (II) to inhibit the binding of an Alexa647-labelled ATP-competitive kinase inhibitor to a GST-RIPK2 fusion protein was quantified employing the TR-FRET-based RIPK2 binding competition assay as described in the following paragraphs.
Recombinant fusion protein of N-terminal Glutathione-S-Transferase (GST) and a fragment of human RIPK2 (amino acids 1-310 of accession number 043353), expressed in baculovirus infected Sf9 cells, purified via glutathione affinity chromatography, was used as GST-RIPK2 fusion protein. Tracer 199 from Life Technologies (catalogue no. PR9115B) was used as Alexa647-labelled ATP-competitive kinase inhibitor.
For the assay, 50 nL of a 100-fold concentrated solution of each test compound in DMSO was pipetted into either a black low volume 384-well microtiter plate or a black 1536-well microtiter plate (both Greiner Bio-One, Frickenhausen, Germany), 3 μL solution of Tracer 199 (16.7 nM=>final concentration in 5 μL assay volume is 10 nM) in aqueous assay buffer (25 mM Tris/HCl pH 7.5, 10 mM magnesium chloride (MgCl2), 5 mM β-glycerophosphate, 2.5 mM dithiothreitol (DTT), 0.5 mM ethylene glycol-bis(2-aminoethylether)-N,N,N′,N′-tetraacetic acid (EGTA), 0.5 mM sodium ortho-vanadate, 0.01% (w/v) bovine serum albumin (BSA), 0.005% (w/v) Pluronic F-127 (Sigma)) were added. Then the binding competition was started by the addition of 2 μL of a solution of the GST-RIPK2 fusion protein (2.5 nM=>final conc. in the 5 μL assay volume is 1 nM) and of Anti-GST-Tb (1.25 nM=>final conc. in the 5 μL assay volume is 0.5 nM), a Lumi4®—Tb cryptate-conjugated anti-GST antibody from PerkinElmer (catalogue no 61GSTTAH), in assay buffer.
The resulting mixture was incubated 45 min at 22° C. to allow the formation of a complex between the Tracer 199, the fusion protein and Anti-GST-Tb. Subsequently, the amount of this complex was evaluated by measurement of the resonance energy transfer from the Tb-cryptate to the Tracer 199. Therefore, the fluorescence emissions at 620 nm and 665 nm after excitation at 337 nm were measured in a TR-FRET reader, e.g. a Pherastar FS(BMG Labtechnologies, Offenburg, Germany) or a Viewlux (PerkinElmer). The ratio of the emissions at 665 nm and at 620 nm was taken as the measure of the amount of the complex. The data were normalized (assay reaction without inhibitor=0% activity, all other assay components but no GST-RIPK2 fusion protein=−100% activity).

[2] = target: T2, RIPK2 (KD)/XIAP (BIR2) (Homo sapiens, UniProt O43353); test: RIPK2-XIAP binding competition PPI assay (TR-FRET); details: for Emax: 50 nM of GSK583 = -100% activity, read-out: PPI Amax; for IC50: GST-RIPK2 / His-XIAP (BIR2)-avi, 120 min at 23° C.
T2 construct: made in house; host or cells: baculovirus-infected Sf9 cells
Method in brief: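 After 2 h at 23 °C, complex formation was read as the 665/520 nm emission ratio (337 nm excitation), scaled between uninhibited reaction and 50 nM GSK583. The mix held 1 nM human RIPK2 kinase fragment-GST, 25 nM His-tagged XIAP BIR2 and Tb/XL665 antibodies in pH 7.5 Tris buffer containing vanadate and glycerophosphate.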

[3] = tested on: THP1-Dual cells, NF-κB pathway (SEAP); test: THP-1 Dual cell SEAP assay (L18-MDP stimulated); format: cell-based; details: Homo sapiens, 10 ng/mL L18-MDP, 20-24 h, SEAP readout, read-out: IFNγ THP1 IC50
Method in brief: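 IC50 values come from non-linear fits of % inhibition of SEAP, measured as QUANTI-Blue optical density (620-655 nm, 2 h) in media-blanked supernatants. These were taken from THP1-Dual cells treated with compound for 30 min before overnight exposure to 10 ng/mL L18-MDP final at 37 °C.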

T1 sequence (O43353 1-310): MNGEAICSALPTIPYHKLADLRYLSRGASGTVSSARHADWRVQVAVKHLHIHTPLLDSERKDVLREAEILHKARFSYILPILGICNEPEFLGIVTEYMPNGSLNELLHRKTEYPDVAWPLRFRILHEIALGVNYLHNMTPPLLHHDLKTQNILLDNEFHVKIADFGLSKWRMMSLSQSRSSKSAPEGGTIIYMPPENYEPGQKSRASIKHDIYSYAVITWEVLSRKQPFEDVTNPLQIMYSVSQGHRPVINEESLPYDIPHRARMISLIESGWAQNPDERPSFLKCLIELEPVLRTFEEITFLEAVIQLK
T2 sequence (O43353 1-310): as above

`COc1cc2ncc(-c3cc(C(=O)NCc4ccccc4Cl)n(C)n3)n2cc1S(=O)(=O)C(C)(C)C` [Example 4, 3-(6-(tert-butylsulfonyl)-7-methoxyimidazo[1,2-a]pyridin-3-yl)-N-(2-chlorobenzyl)-1-methyl-1H-pyrazole-5-carboxamide] gave an IC50 [1] of under 0.2 µM, an Emax [2] of at least 80% and an IC50 [2] of 0.01 to 0.1 µM. For the same compound, the IC50 [3] was 0.5 to 2.5 µM.
For `COc1cc2ncc(-c3cc(C(=O)N(C)C)n(C)n3)n2cc1S(=O)(=O)C(C)(C)C` [Example 5, 3-(6-(tert-butylsulfonyl)-7-methoxyimidazo[1,2-a]pyridin-3-yl)-N,N,1-trimethyl-1H-pyrazole-5-carboxamide], the IC50 [1] was under 0.2 µM, the Emax [2] was at most 30% and the IC50 [2] was over 1 µM. It also gave an IC50 [3] of over 2.5 µM.
`COc1cc2ncc(-c3cc(C(=O)NC4CCCCC4)n(C)n3)n2cc1S(=O)(=O)C(C)(C)C` [Example 6, 3-(6-(tert-butylsulfonyl)-7-methoxyimidazo[1,2-a]pyridin-3-yl)-N-cyclohexyl-1-methyl-1H-pyrazole-5-carboxamide] was tested, and the IC50 [1] was over 1 µM, the Emax [2] was at least 80% and the IC50 [2] was over 1 µM. The IC50 [3] was over 2.5 µM.
`COc1cc2ncc(-n3cc(NC(=O)Cc4ccccc4Cl)cn3)n2cc1S(=O)(=O)C(C)(C)C` [Example 152, N-(1-(6-(tert-butylsulfonyl)-7-methoxyimidazo[1,2-a]pyridin-3-yl)-1H-pyrazol-4-yl)-2-(2-chlorophenyl)acetamide] gave an IC50 [1] of under 0.2 µM, an Emax [2] of at least 80% and an IC50 [2] of 0.1 to 1 µM. It also gave an IC50 [3] of over 2.5 µM.
In the case of `COc1cc2ncc(-n3cc(NC(=O)OC(C)(C)C)cn3)n2cc1SC(C)(C)C` [Example 153, tert-butyl (1-(6-(tert-butylthio)-7-methoxyimidazo[1,2-a]pyridin-3-yl)-1H-pyrazol-4-yl)carbamate], the IC50 [1] is reported as 0.2 to 0.5 µM, the Emax [2] is reported as at least 80% and the IC50 [2] is reported as over 1 µM. The IC50 [3] was over 2.5 µM.
`COc1cc2ncc(-n3cc(NC(=O)OC(C)(C)C)cn3)n2cc1S(=O)(=O)C(C)(C)C` [Example 154, tert-butyl (1-(6-(tert-butylsulfonyl)-7-methoxyimidazo[1,2-a]pyridin-3-yl)-1H-pyrazol-4-yl)carbamate] was tested, and the IC50 [1] was 0.5 to 1 µM, the Emax [2] was at least 80% and the IC50 [2] was over 1 µM. For the same compound, the IC50 [3] was over 2.5 µM.
`COc1cc2ncc(-n3cc(NC(C)=O)cn3)n2cc1S(=O)(=O)C(C)(C)C` [Example 155, N-(1-(6-(tert-butylsulfonyl)-7-methoxyimidazo[1,2-a]pyridin-3-yl)-1H-pyrazol-4-yl)acetamide] showed an IC50 [1] of over 1 µM, an Emax [2] of at most 30% and an IC50 [2] of over 1 µM. For the same compound, the IC50 [3] was over 2.5 µM.
`COc1cc2ncc(-n3cc(NC(=O)Cc4cccc(F)c4Cl)cn3)n2cc1S(=O)(=O)C(C)(C)C` [Example 156, N-(1-(6-(tert-butylsulfonyl)-7-methoxyimidazo[1,2-a]pyridin-3-yl)-1H-pyrazol-4-yl)-2-(2-chloro-3-fluorophenyl)acetamide] showed an IC50 [1] of 0.5 to 1 µM, an Emax [2] of at least 80% and an IC50 [2] of over 1 µM. The IC50 [3] was over 2.5 µM.
`COc1cc2ncc(-n3cc(NC(=O)Cc4cc(F)ccc4Cl)cn3)n2cc1S(=O)(=O)C(C)(C)C` [Example 157, N-(1-(6-(tert-butylsulfonyl)-7-methoxyimidazo[1,2-a]pyridin-3-yl)-1H-pyrazol-4-yl)-2-(2-chloro-5-fluorophenyl)acetamide] gave an IC50 [1] of 0.5 to 1 µM, an Emax [2] of at least 80% and an IC50 [2] of over 1 µM. It also gave an IC50 [3] of over 2.5 µM.
`COc1cc2ncc(-n3cc(NC(=O)Cc4ccc(F)cc4Cl)cn3)n2cc1S(=O)(=O)C(C)(C)C` [Example 158, N-(1-(6-(tert-butylsulfonyl)-7-methoxyimidazo[1,2-a]pyridin-3-yl)-1H-pyrazol-4-yl)-2-(2-chloro-4-fluorophenyl)acetamide] gave an IC50 [1] of 0.5 to 1 µM, an Emax [2] of at least 80% and an IC50 [2] of over 1 µM. It also gave an IC50 [3] of over 2.5 µM.
For `COc1cc2ncc(-n3cc(NC(=O)Cc4c(F)cccc4Cl)cn3)n2cc1S(=O)(=O)C(C)(C)C` [Example 159, N-(1-(6-(tert-butylsulfonyl)-7-methoxyimidazo[1,2-a]pyridin-3-yl)-1H-pyrazol-4-yl)-2-(2-chloro-6-fluorophenyl)acetamide], the IC50 [1] was under 0.2 µM, the Emax [2] was at least 80% and the IC50 [2] was 0.1 to 1 µM. It also gave an IC50 [3] of 0.5 to 2.5 µM.
With `COc1cc2ncc(-n3cc(NC(=O)Cc4ccccc4)cn3)n2cc1S(=O)(=O)C(C)(C)C` [Example 160, N-(1-(6-(tert-butylsulfonyl)-7-methoxyimidazo[1,2-a]pyridin-3-yl)-1H-pyrazol-4-yl)-2-phenylacetamide] the IC50 [1] was 0.2 to 0.5 µM, the Emax [2] was at least 80% and the IC50 [2] was 0.1 to 1 µM. The IC50 [3] was over 2.5 µM.
For `COc1cc2ncc(-n3cc(NC(=O)[C@H](C)c4ccccc4)cn3)n2cc1S(=O)(=O)C(C)(C)C` [Example 161, (R)-N-(1-(6-(tert-butylsulfonyl)-7-methoxyimidazo[1,2-a]pyridin-3-yl)-1H-pyrazol-4-yl)-2-phenylpropanamide], the IC50 [1] was 0.2 to 0.5 µM, the Emax [2] was at least 80% and the IC50 [2] was 0.1 to 1 µM. For the same compound, the IC50 [3] was over 2.5 µM.
`COc1cc2ncc(-n3cc(NC(=O)[C@@H](C)c4ccccc4)cn3)n2cc1S(=O)(=O)C(C)(C)C` [Example 162, (S)-N-(1-(6-(tert-butylsulfonyl)-7-methoxyimidazo[1,2-a]pyridin-3-yl)-1H-pyrazol-4-yl)-2-phenylpropanamide] was tested, and the IC50 [1] was 0.5 to 1 µM, the Emax [2] was at least 80% and the IC50 [2] was over 1 µM. For the same compound, the IC50 [3] was over 2.5 µM.
For `COc1cc2ncc(-n3cc(NC(=O)C4CC4)cn3)n2cc1S(=O)(=O)C(C)(C)C` [Example 163, N-(1-(6-(tert-butylsulfonyl)-7-methoxyimidazo[1,2-a]pyridin-3-yl)-1H-pyrazol-4-yl)cyclopropanecarboxamide], the IC50 [1] was over 1 µM, the Emax [2] was at most 30% and the IC50 [2] was over 1 µM. The IC50 [3] was over 2.5 µM.
`COc1cc2ncc(-n3cc(NC(=O)C4CCCCC4)cn3)n2cc1S(=O)(=O)C(C)(C)C` [Example 164, N-(1-(6-(tert-butylsulfonyl)-7-methoxyimidazo[1,2-a]pyridin-3-yl)-1H-pyrazol-4-yl)cyclohexanecarboxamide] gave an IC50 [1] of over 1 µM, an Emax [2] of at least 80% and an IC50 [2] of over 1 µM. It also gave an IC50 [3] of over 2.5 µM.
`COc1cc2ncc(-n3cc(NC(=O)C4CCC(F)(F)CC4)cn3)n2cc1S(=O)(=O)C(C)(C)C` [Example 165, N-(1-(6-(tert-butylsulfonyl)-7-methoxyimidazo[1,2-a]pyridin-3-yl)-1H-pyrazol-4-yl)-4,4-difluorocyclohexane-1-carboxamide] showed an IC50 [1] of over 1 µM, an Emax [2] of 55 to 80% and an IC50 [2] of over 1 µM. It also gave an IC50 [3] of over 2.5 µM.
In the case of `COc1cc2ncc(-n3cc(NC(=O)[C@@H](c4ccccc4)N(C)C)cn3)n2cc1S(=O)(=O)C(C)(C)C` [Example 166, (R)-N-(1-(6-(tert-butylsulfonyl)-7-methoxyimidazo[1,2-a]pyridin-3-yl)-1H-pyrazol-4-yl)-2-(dimethylamino)-2-phenylacetamide], the IC50 [1] is reported as over 1 µM, the Emax [2] is reported as at least 80% and the IC50 [2] is reported as over 1 µM. The IC50 [3] was over 2.5 µM.
`COc1cc2ncc(-n3cc(NC(=O)CC4CCCCC4)cn3)n2cc1S(=O)(=O)C(C)(C)C` [Example 167, N-(1-(6-(tert-butylsulfonyl)-7-methoxyimidazo[1,2-a]pyridin-3-yl)-1H-pyrazol-4-yl)-2-cyclohexylacetamide] gave an IC50 [1] of over 1 µM, an Emax [2] of at least 80% and an IC50 [2] of over 1 µM. For the same compound, the IC50 [3] was over 2.5 µM.

— patent US20260091026A1, “METHODS OF TREATING INFLAMMATORY DISEASES” (INTERLINE THERAPEUTICS, INC., priority 2023, published 2026)
